Source: patent US11236067B2, “Compound for treating cystic fibrosis” (ORPHOMED, INC., priority 2019, dated 2022)
In brackets after ≈: the same amount, converted by molar mass. Entries after “also recorded” stand apart in the source; their conditions may differ.

Columns and labels:
F508del CFTR = target: T1, F508del CFTR (Homo sapiens, UniProt P13569, DEL508-508); test: CFTR potentiator activity, Ussing chamber assay in primary bronchial epithelia (CFhBE); assay type: cell-based
T1 construct: human primary bronchial epithelia obtained from donors with the homozygous F508del CFTR missense mutation (CFhBE); endogenous in cells; host or cells: human primary bronchial epithelial cells (CFhBE) from donors homozygous for F508del
T1 sequence (P13569 with tags, fused parts or gaps DEL508-508): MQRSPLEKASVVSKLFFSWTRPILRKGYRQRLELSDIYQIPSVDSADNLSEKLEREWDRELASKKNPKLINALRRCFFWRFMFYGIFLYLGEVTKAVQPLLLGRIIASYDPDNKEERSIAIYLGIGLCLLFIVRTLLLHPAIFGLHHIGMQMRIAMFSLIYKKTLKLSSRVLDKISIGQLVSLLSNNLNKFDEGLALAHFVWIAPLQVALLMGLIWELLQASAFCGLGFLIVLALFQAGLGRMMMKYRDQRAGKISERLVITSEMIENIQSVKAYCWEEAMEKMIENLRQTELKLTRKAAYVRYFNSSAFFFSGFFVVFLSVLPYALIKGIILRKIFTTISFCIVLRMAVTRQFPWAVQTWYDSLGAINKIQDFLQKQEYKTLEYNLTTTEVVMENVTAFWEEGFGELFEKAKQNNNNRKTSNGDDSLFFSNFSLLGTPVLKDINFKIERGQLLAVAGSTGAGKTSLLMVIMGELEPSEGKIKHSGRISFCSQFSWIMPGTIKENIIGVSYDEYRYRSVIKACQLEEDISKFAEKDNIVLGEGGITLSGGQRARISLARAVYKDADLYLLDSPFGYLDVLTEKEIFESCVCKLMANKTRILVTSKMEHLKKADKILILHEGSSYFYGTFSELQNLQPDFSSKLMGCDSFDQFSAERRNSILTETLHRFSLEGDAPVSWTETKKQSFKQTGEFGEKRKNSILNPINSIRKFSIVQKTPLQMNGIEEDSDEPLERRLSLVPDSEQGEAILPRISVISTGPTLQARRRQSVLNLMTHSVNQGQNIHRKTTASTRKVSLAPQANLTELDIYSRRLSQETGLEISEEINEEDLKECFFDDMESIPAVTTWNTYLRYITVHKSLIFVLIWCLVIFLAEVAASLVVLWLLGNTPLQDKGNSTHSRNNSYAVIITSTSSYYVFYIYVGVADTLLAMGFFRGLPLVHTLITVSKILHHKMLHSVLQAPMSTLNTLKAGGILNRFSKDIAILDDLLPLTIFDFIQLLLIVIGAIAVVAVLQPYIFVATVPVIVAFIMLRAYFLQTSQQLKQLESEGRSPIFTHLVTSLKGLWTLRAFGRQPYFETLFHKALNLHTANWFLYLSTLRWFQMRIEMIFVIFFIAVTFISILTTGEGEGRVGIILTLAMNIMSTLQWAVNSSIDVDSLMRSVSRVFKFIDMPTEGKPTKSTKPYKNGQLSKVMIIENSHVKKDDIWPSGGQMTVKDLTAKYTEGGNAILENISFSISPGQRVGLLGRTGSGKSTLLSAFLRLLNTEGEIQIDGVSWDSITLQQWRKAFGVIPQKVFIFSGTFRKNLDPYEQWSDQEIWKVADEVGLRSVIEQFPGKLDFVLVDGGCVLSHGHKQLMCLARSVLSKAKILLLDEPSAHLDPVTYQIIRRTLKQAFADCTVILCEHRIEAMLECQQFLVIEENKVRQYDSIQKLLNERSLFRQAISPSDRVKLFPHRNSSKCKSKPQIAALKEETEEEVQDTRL
Method: Chloride ion channel potentiator activity of the compound of Formula I (Compound 10) and ivacaftor was evaluated in monlayer cultures of human primary bronchial epithelia obtained from donors with the homozygous F508del CFTR missense mutation (CFhBE) using Ussing assay technology.
The Ussing chamber assay is a well-established method for measurement of transport across epithelia of a wide variety of transport substrates (Clark, American Journal of Physiology.Gastrointestinal and liver Physiology, 2009, 296, G1151-1166). The Ussing half-chambers permit both apical and basolateral surfaces of an epithelium to be exposed to identical solutions, eliminating the chemical concentration gradient for movement of molecules across the epithelium. Under these symmetric solution conditions, the epithelium generates a transepithelial potential by activity of ion selective channels and active transport processes asymmetrically distributed in apical and basolateral membranes. The epithelium is maintained at a potential difference of 0 mV. The negative feedback circuit used for controlling the potential difference at 0 mV is called a voltage clamp circuit. Any current generated by the voltage clamp to maintain the transepithelial potential at 0 mV can arise only from biological active transport processes in the epithelial cells and the current (called short circuit current (ISC)) is a direct measure of these processes. Efflux of chloride to the apical surface is enabled by opening of apical CFTR channels, which allows water to move to the cellular surface and keep the tissue hydrated.

[1] = Solubility by nephelometry (turbidity) in HEPES-buffered physiological saline with 0.3% DMSO; assay type: physicochemical; conditions: HB-PS with 0.3% DMSO; for solubility: HEPES-buffered physiological saline with 0.3% DMSO, aqueous buffer, kinetic from dmso stock, interpolated from solubility and turbidity plots, read-out: Solubility limit
Method: Solubility of the compound of Formula I (Compound 10) and ivacaftor was evaluated in HEPES-buffered physiological saline solution (HB-PS) with 0.3% DMSO. Solubility was measured as absence of turbidity using microparticualtes light-scattering technology in nephelometer and output expressed as nephelometry turbidity units (NTU). The HEPES buffer with 0.3% DMSO was the media used for the Ussing Chamber assays as described below. Concentrations of Compound 10 and ivacaftor tested in duplicate were 0, 0.01, 0.03, 0.1, 0.3, 1, 3, 10, 30 μM. The NIST traceable reference standard at 0, 0.2, 0.6 and 1 NTU were measured in duplicate as a reference standard for turbidity. The NTU values were plotted against the concentrations of Compound 10 and ivacaftor.

[2] = Metabolic stability in human liver microsomes with NADPH generating system; assay type: in vitro ADME; conditions: for Substrate remaining (%) / Substrate loss (%) / microsomal CLint at 1 uM / half-life at 1 uM: 1 μM substrate; for microsomal CLint at 1 uM: read-out: Estimated in vitro intrinsic clearance (μL/min/mg protein); for half-life at 1 uM: read-out: Half-life estimated from single exponential decay; for Metabolic stability (in words): substrate in the presence of human liver microsomes
Method: The compound of Formula I (Compound 10) (1 uM) and ivacaftor (1 uM) were incubated with human liver microsomes (1 mg/mL protein/mL) in the presence of NADPH generating system (NADP (1 mM, ph7, glucose-6-phosphate (5 mM ph 7.4) and glucose-6-phosphate dehydrogenase (1 Unit/mL) for 0, 30, 60, and 120 minutes. Remaining substrate was measured by LC-MS/MS. Concentration of the test article was converted to percent drug remaining relative to the concentration of the test article at Time Zero.

[3] = human liver microsomes, 120 min

| Potency relative to ivacaftor (times more potent) (F508del CFTR; based on solubility difference between the compound and ivacaftor) | Solubility relative to ivacaftor (times less soluble) [1] [times] | solubility [1] [µM] | Substrate remaining (%) ([2]; human liver microsomes, 0 min) | Substrate loss (%) ([2]; human liver microsomes, 30 min) | Substrate remaining (%) ([2]; human liver microsomes, 30 min) | Substrate loss (%) ([2]; human liver microsomes, 60 min) | Substrate remaining (%) ([2]; human liver microsomes, 60 min) | Substrate loss (%) [2, 3] | Substrate remaining (%) [2, 3] [%] | microsomal CLint at 1 uM ([2]; human liver microsomes) [µL/min/mg] | half-life at 1 uM ([2]; human liver microsomes) [h] | Metabolic stability (in words) [2] | Metabolic stability (in words) ([2]; listed as compound represented by Formula I) | Fraction metabolized ([2]; incubated with human liver microsomes (text summary of Table 1)) [%] | SMILES | Potentiator response (in words) (F508del CFTR; homozygous F508del CFhBE monolayers, short circuit current, FIGS. 2A and 2B) | Duration/stability of potentiator response (in words) (F508del CFTR; homozygous F508del CFhBE, FIGS. 2A and 2B) | Metabolism back to ivacaftor or ivacaftor metabolites (in words) ([2]; human liver microsomes) |
| --- | --- | --- | --- | --- | --- | --- | --- | --- | --- | --- | --- | --- | --- | --- | --- | --- | --- | --- |
| at least 15 times | 57.4 | 0.137 | 100 | No loss | 108 | No loss | 107 | No loss | 120 | < 5.78 | > 2 | metabolically stable | chemically and metabolically stable |  | CC(C)(C)c1cc(C(C)(C)C)c(OCCOc2cc(NC(=O)c3c[nH]c4ccccc4c3=O)c(C(C)(C)C)cc2C(C)(C)C)cc1NC(=O)c1c[nH]c2ccccc2c1=O [Compound of Formula I, N,N′-((ethane-1,2-diylbis(oxy))bis(2,4-di-tert-butyl-5,1-phenylene))bis(4-oxo-1,4-dihydroquinoline-3-carboxamide)] | potentiator response is similar to ivacaftor; also recorded: potentiated F508del CFTR | appears to remain stable longer than ivacftor | not to substantially metabolize to ivacaftor, hydroxymethyl-ivacaftor or ivacaftor-carboxylate; also recorded: does not revert back to ivacaftor |
|  |  | 7.86 (≈ 3.09 µg/mL) | 100 | 30.4% | 69.6 | 49.1% | 50.9 | 69.5% | 30.5 | 10.6 | 1.09 |  |  | ~70 | CC(C)(C)c1cc(C(C)(C)C)c(NC(=O)c2c[nH]c3ccccc3c2=O)cc1O [ivacaftor, reference compound] |  |  |  |
